Test results as given in patent US20140242707A1, “Compositions and Methods for Diagnosing Hypercoagulability and Hypocoagulability” (Philadelphia Health & Education Corporation d/b/a Drexel …, priority 2011, published 2014).

Test system: horse plasma
Assay: Thrombelastography of horse plasma, coagulation and fibrinolysis study (with tPA)
Type: biochemical
Conditions: for % TTG Loss / MRL / MRTG / TMRL / TMRTG / TTG / CGT / CLS / CLT: CORM-2 100 μM
Description: Blood was collected directly into plastic tubes containing 0.105 M sodium citrate (9:1, v/v) from the jugular vein of ten clinically normal grade and American Quarter Horse mares between 400 and 600 kg. Three additional horses to be subsequently described with acute gastrointestinal disease had blood samples similarly collected. The mares were group-housed in corrals. Plasma was obtained by centrifugation of citrated whole blood at 3000×g for 15 minutes and immediately frozen at −80° C. Plasma was subsequently shipped on dry ice and stored at −80° C. until thrombelastographic analysis.
In the second series of experiments assessing both coagulation and fibrinolysis, sample composition consisted of 316 μl of plasma; 10 μl of tissue factor reagent (0.1% final concentration), 10 μl of tissue type plasminogen activator (tPA, 580 Genentech, Inc., San Francisco, Calif., USA; 300 IU/ml final concentration); 3.6 μl of dH2O, or 3.6 μl dH2O containing PHA (10 mM final concentration), or 3.6 μl of CORM-2 (100 μM final concentration) and 20 μl of 200 mM CaCl2. The effects of converting heme groups to either a carboxyheme or metheme in horse plasma during clot growth and fibrinolysis were assessed as subsequently described.
Plasma sample mixtures were placed in a disposable cup in a computer-controlled Thrombelastograph® hemostasis system (Model 5000, Haemoscope Corp., Niles, Ill., USA), with addition of CaCl2 as the last step to initiate clotting. Data were collected at 37° C. for 15 min in the first series of experiments involving coagulation alone, whereas in the experiments involving fibrinolysis data were collected until clot lysis time was observed. Elastic modulus-based parameters previously described were determined (Nielsen et al., 2009, Blood Coagul Fibrinolysis, 20: 377-380; Nielsen et al., 2009, Blood Coagul Fibrinolysis, 20: 448-455). The nomenclature used to describe these phenomena is as follows:
Time to maximum rate of thrombus generation (TMRTG): This is the time interval (min) observed prior to maximum speed of clot growth.
Maximum rate of thrombus generation (MRTG): This is the maximum velocity of clot growth observed (dynes/cm^2/sec).
Total Thrombus Generation (TTG): This is the total area under the velocity curve during clot growth (dynes/cm^2), representing the amount of clot strength generated during clot growth.
Time to maximum rate of lysis (TMRL): This is the time interval (min) measured from the time of maximum strength to the time when the velocity of clot disintegration is maximal.
Maximum Rate of Lysis (MRL): This is the maximum velocity of clot disintegration observed (-dynes/cm^2/sec).
Clot growth time (CGT): This is the time from clot amplitude of 2 mm [102 dynes/cm^2] until maximum strength is achieved, in min.
Clot lifespan (CLS): This is the sum of CGT and CLT.
Thrombelastographic data are presented as mean±SD or as individual animal parameter values as appropriate. The effects of addition of CORM-2 and PHA on coagulation and fibrinolytic kinetic parameters were analyzed with one way repeated measures analysis of variance, utilizing Holm-Sidak post hoc test (SigmaStat 3.1, Systat Software, Inc., San Jose, Calif., USA) as appropriate. A P value of <0.05 was considered significant.

[1] = horse with lethal enteritis, tPA
[2] = horse with mild disease, tPA, PHA 10 mM
[3] = horse with moderate disease, tPA, PHA 10 mM
[4] = horse with moderate enteritis, tPA
[5] = normal horses, tPA 300 IU/ml, PHA 10 mM

## [C-]#[O+].[C-]#[O+].[C-]#[O+].[C-]#[O+].[C-]#[O+].[C-]#[O+].[Cl][Ru][Cl].[Cl][Ru][Cl] [CORM-2, tricarbonyldichlororuthenium (II) dimer]
Horse with lethal disease, tPA
  % TTG Loss: 67.4%
  MRL: 0.1 -dynes/cm^2/sec
  MRTG: 2.8 dynes/cm^2/sec
  TMRL: 65.2 min
  TMRTG: 4.1 min
  TTG: 92 dynes/cm^2
[1]
  effect on MRL vs control sample: did not affect
  increase in MRTG vs control sample: 12%
  increase in TMRL vs control sample: 8 fold
  increase in TTG vs control sample: 73%
[2]
  % TTG Loss: 50.7%
  MRL: 0.2 -dynes/cm^2/sec
  MRTG: 6.8 dynes/cm^2/sec
  TMRL: 122.8 min
  TMRTG: 3.2 min
  TTG: 274 dynes/cm^2
Horse with mild enteritis, tPA
  decrease in MRL vs control sample: 88%
  decrease in MRTG vs control sample: 3%
  increase in TMRL vs control sample: 46 fold
  increase in TTG vs control sample: 77%
[3]
  % TTG Loss: 25.8%
  MRL: 0.4 -dynes/cm^2/sec
  MRTG: 7.2 dynes/cm^2/sec
  TMRL: 62.9 min
  TMRTG: 2.5 min
  TTG: 198 dynes/cm^2
[4]
  decrease in MRL vs control sample: 83%
  increase in MRTG vs control sample: 38%
  increase in TMRL vs control sample: 55 fold
  increase in TTG vs control sample: 160%
Normal horses, tPA
  decrease in CGT vs control: 26%
  decrease in CLS (clot lifespan) vs control: 77%
  decrease in CLT vs control: 83%
  decrease in MRL vs control: 27%
  increase (prolongation) in TMRL vs control: 113%
  increase in CGT vs control: 106%
  increase in CLS vs control: 154%
  increase in CLT vs control: 160%
  increase in TTG vs control: 35%
[5]
  CGT: 6.4 ± 1.7 min
  CLS: 77.1 ± 23.8
  CLT: 70.6 ± 23.0 min
  MRL: 1.1 ± 0.5 -dynes/cm^2/sec
  MRTG: 13.2 ± 3.4 dynes/cm^2/sec
  TMRL: 26.2 ± 17.3 min
  TMRTG: 2.7 ± 0.4 min
  TTG: 312 ± 70 dynes/cm^2

## ONc1ccccc1 [PHA, phenylhydroxylamine]
[2]
  % TTG Loss: 100%
  MRL: 2.6 -dynes/cm^2/sec
  MRTG: 4.0 dynes/cm^2/sec
  TMRL: 2.4 min
  TMRTG: 3.4 min
  TTG: 100 dynes/cm^2
Horse with mild enteritis, tPA
  decrease in MRTG vs control sample: 42%
  decrease in TTG vs control sample: 28%
  difference in TMRL between control and exposed sample: 8%
  increase in MRL vs control sample: 53%
[3]
  % TTG Loss: 100%
  MRL: 2.3 -dynes/cm^2/sec
  MRTG: 4.5 dynes/cm^2/sec
  TMRL: 2.8 min
  TMRTG: 2.8 min
  TTG: 94 dynes/cm^2
[4]
  change in MRL vs control sample: essentially no change
  decrease in MRTG vs control sample: 13%
  increase in TMRL vs control sample: 64%
  increase in TTG vs control sample: 23%
Normal horses, tPA
  decrease in CLS (clot lifespan) vs control: 77%
  decrease in MRTG vs control: 55%
  decrease in TMRL vs control: 84%
  increase in MRL vs control: 133%
[5]
  CGT: 2.3 ± 0.5 min
  CLS: 6.9 ± 1.4
  CLT: 4.6 ± 1.3 min
  MRL: 3.5 ± 0.8 -dynes/cm^2/sec
  MRTG: 5.6 ± 1.3 dynes/cm^2/sec
  TMRL: 2.0 ± 0.2 min
  TMRTG: 3.2 ± 0.6 min
  TTG: 118 ± 26 dynes/cm^2
